Patent US8853174B2, “Agent for preventing or ameliorating skin aging” (Kao Corporation, priority 2008, dated 2014)

System: Human skin fibroblasts
Experiment: Measurement of contraction force generated by cells (fibroblast-embedded collagen gel culture system)
Assay type: cell-based
Conditions: for enhancement in the contraction force generated by fibroblasts (in words): 3 μM; for Mean value of contraction force generated by cells: Test Example 1, human skin fibroblasts in collagen gel, final concentration 3 μM

Row | SMILES | enhancement in the contraction force generated by fibroblasts (in words) | Mean value of contraction force generated by cells
1 | C/C=C(\C)C(=O)O[C@H]1[C@H](OC(C)=O)[C@]2(CO)[C@H](O)C[C@]3(C)C(=CC[C@@H]4[C@@]5(C)CC[C@H](O[C@@H]6O[C@H](C(=O)O)[C@@H](O[C@@H]7O[C@H](CO)[C@@H](O)[C@H](O)[C@H]7O)[C@H](O)[C@H]6O[C@@H]6O[C@H](CO)[C@@H](O)[C@H](O)[C@H]6O)[C@](C)(CO)[C@@H]5CC[C@]43C)[C@@H]2CC1(C)C [Escin Ia] | no enhancement | 0.0 dyne
2 | C/C=C(/C)C(=O)O[C@H]1[C@H](OC(C)=O)[C@]2(CO)[C@H](O)C[C@]3(C)C(=CC[C@@H]4[C@@]5(C)CC[C@H](O[C@@H]6O[C@H](C(=O)O)[C@@H](O[C@@H]7O[C@H](CO)[C@@H](O)[C@H](O)[C@H]7O)[C@H](O)[C@H]6O[C@@H]6O[C@H](CO)[C@@H](O)[C@H](O)[C@H]6O)[C@](C)(CO)[C@@H]5CC[C@]43C)[C@@H]2CC1(C)C [Escin Ib] | no enhancement | 0.0 dyne
